Patent publication US20090118202A1, “COMPOSITIONS AND METHODS OF TREATING HYPERTENSION WITH TANNIN COMPLEXES” (Texas Tech University, priority 2007, published 2009)

Experiments:
MAP-kinases p42 and p44 = assay: MAP-kinase phosphorylation in rat liver cells exposed to tannic acid (Western blot); type: cell-based; details: pretreatment of cells with the inhibitor
Description: FIGS. 6A-6C are images of a Western blot illustrating rat liver cells exposed to tannic acid in the presence or absence of the MAP-Kinase specific cell permeable inhibitor PD 98059 for 20 hours and total cell extracts were prepared. Equal amount of proteins were resolved by 8% polyacrylamide gel electrophoresis and immunoblotted with phospho-specific MAP-Kinase antibody in FIG. 6A, anti-MAP-kinase antibody in FIG. 6B, AT1 specific antibody in FIG. 6C top or anti-beta-actin antibody in FIG. 6C bottom. Immunoreactive bands were visualized using a chemiluminescence Western blotting system according to the manufacturer's instruction. In each plate protein concentration was determined using Bio-Rad protein assay reagent.

AT1 receptor = assay: AT1 specific AngII binding in WB cells exposed to tannic acid; type: cell-based, rat; details: pretreatment of cells with the inhibitor
Description: The present invention provides the use of hydrolysable tannic acids to affect angiotensin type 1 (AT1) receptor expression. The present invention used WB (i.e., a continuously passaged rat liver epithelial cell line) which expresses the native AT1 receptor. Under normal culture conditions, cells were exposed to tannic acid and changes in receptor expression and signaling intermediates were determined.
FIG. 3A is an image of a plot illustrating the effects of tannic acid on native AT1, rat liver cells were exposed to tannic acid at indicated concentration for 20 hours.

SMILES: COc1cccc(-c2cc(=O)c3ccccc3o2)c1N [MAP kinase specific inhibitor, PD98059]
- prevention of tannic acid induced MAP-kinases phosphorylation (MAP-kinases p42 and p44): ineffective
- prevention of tannic acid induced down regulation of the AT1 receptor (AT1 receptor): ineffective
